Assay results from publication PMC6979384, “Characterization of the plant homeodomain (PHD) reader family for their histone tail interactions” (Epigenetics & Chromatin, 2020).

Experiments:
Experiment in all cases: Histone peptide microarray
Type in all cases: binding, human
DPF2 (PPC2W2) = conditions: DPF2 (PPC2W2), GST-tagged; arrays performed twice, n of 4
Method in brief: (§1)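 Each reader, produced as a GST fusion and purified, was tested at 0.5 μM on synthetic histone peptides (293 in total) carrying single or combinatorial marks. Intensities averaged over four replicates.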

PHF21A = conditions: PHF21A, GST-tagged; arrays performed twice, n of 4
Method in brief: as §1

CHD5 (PCC) = conditions: CHD5 (PCC), GST-tagged; arrays performed twice, n of 4
Method in brief: as §1

KDM7A = conditions: KDM7A, GST-tagged; arrays performed twice, n of 4
Method in brief: as §1

RAG2 = conditions: RAG2, GST-tagged; arrays performed twice, n of 4
Method in brief: as §1

ING1 = conditions: ING1, GST-tagged; arrays performed twice, n of 4
Method in brief: as §1

CHD5 (PPCC) = conditions: CHD5 (PPCC), GST-tagged; arrays performed twice, n of 4
Method in brief: as §1

KDM5A (1) = conditions: KDM5A (1), GST-tagged; arrays performed twice, n of 4
Method in brief: as §1

BPTF (PB) = conditions: BPTF (PB), GST-tagged; arrays performed twice, n of 4
Method in brief: as §1

ING3 = conditions: ING3, GST-tagged; arrays performed twice, n of 4
Method in brief: as §1

BAZ2B = conditions: BAZ2B, GST-tagged; arrays performed twice, n of 4
Method in brief: as §1

PHF2 = conditions: PHF2, GST-tagged; arrays performed twice, n of 4
Method in brief: as §1

MORC3 (CW) = conditions: MORC3 (CW), GST-tagged; arrays performed twice, n of 4
Method in brief: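 Readout is array binding signal, reported as the mean and standard deviation over four replicates. Each purified GST-fused PHD domain was incubated at 0.5 μM with a library of 293 modified histone peptides.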

DIDO1 = conditions: DIDO1, GST-tagged; arrays performed twice, n of 4
Method in brief: as §1

PHF23 = conditions: PHF23, GST-tagged; arrays performed twice, n of 4
Method in brief: as §1

KDM5B (1) = conditions: KDM5B (1), GST-tagged; arrays performed twice, n of 4
Method in brief: as §1

MLL5 = conditions: MLL5, GST-tagged; arrays performed twice, n of 4
Method in brief: as §1

PHRF1 (RP) = conditions: PHRF1 (RP), GST-tagged; arrays performed twice, n of 4
Method in brief: as §1

KDM5B (3) = conditions: KDM5B (3), GST-tagged; arrays performed twice, n of 4
Method in brief: as §1

TRIM66 (PB) = conditions: TRIM66 (PB), GST-tagged; arrays performed twice, n of 4
Method in brief: as §1

PHF8 = conditions: PHF8, GST-tagged; arrays performed twice, n of 4
Method in brief: as §1

AIRE (PP) = conditions: AIRE (PP), GST-tagged; arrays performed twice, n of 4
Method in brief: as §1

CHD4 (PPCC) = conditions: CHD4 (PPCC), GST-tagged; arrays performed twice, n of 4
Method in brief: as §1

SP140L = conditions: SP140L, GST-tagged; arrays performed twice, n of 4
Method in brief: as §1

ING2 = conditions: ING2, GST-tagged; arrays performed twice, n of 4
Method in brief: as §1

KDM4C (TTP) = conditions: KDM4C (TTP), GST-tagged; arrays performed twice, n of 4
Method in brief: as §1

ING5 = conditions: ING5, GST-tagged; arrays performed twice, n of 4
Method in brief: as §1

TAF3 = conditions: TAF3, GST-tagged; arrays performed twice, n of 4
Method in brief: as §1

PHF13 = conditions: PHF13, GST-tagged; arrays performed twice, n of 4
Method in brief: as §1

KDM5A (3) = conditions: KDM5A (3), GST-tagged; arrays performed twice, n of 4
Method in brief: as §1

ING4 = conditions: ING4, GST-tagged; arrays performed twice, n of 4
Method in brief: as §1

With H3K36me3 (21-44): H3 21-44 the “Array Heatmap value (peptide array binding signal)” value (“Array Heatmap value” below) (DPF2 (PPC2W2)) was 0.6719, the “Array Heatmap value” value (PHF21A) was 0.4681 and the “Array Heatmap value” value (CHD5 (PCC)) was 0.7751. For the same substance, the “Array Heatmap value” value (KDM7A) was 0.3622, the “Array Heatmap value” value (RAG2) was 0.2418 and the “Array Heatmap value” value (ING1) was 0.5613. The “Array Heatmap value” value (CHD5 (PPCC)) was 0.5621, the “Array Heatmap value” value (KDM5A (1)) was 0.4698 and the “Array Heatmap value” value (BPTF (PB)) was 0.352. For the same substance, the “Array Heatmap value” value (ING3) was 0.4991, the “Array Heatmap value” value (BAZ2B) was 0.4726 and the “Array Heatmap value” value (PHF2) was 0.5258. The “Array Heatmap value” value (MORC3 (CW)) was 0.351, the “Array Heatmap value” value (DIDO1) was 0.7273 and the “Array Heatmap value” value (PHF23) was 0.5628. For the same substance, the “Array Heatmap value” value (KDM5B (1)) was 0.6524, the “Array Heatmap value” value (MLL5) was 0.5803 and the “Array Heatmap value” value (PHRF1 (RP)) was 0.4375. For the same substance, the “Array Heatmap value” value (KDM5B (3)) was 0.4778, the “Array Heatmap value” value (TRIM66 (PB)) was 0.6062 and the “Array Heatmap value” value (PHF8) was 0.3546. For the same substance, the “Array Heatmap value” value (AIRE (PP)) was 0.4385, the “Array Heatmap value” value (CHD4 (PPCC)) was 0.5871 and the “Array Heatmap value” value (SP140L) was 0.3526. For the same substance, the “Array Heatmap value” value (ING2) was 0.6072, the “Array Heatmap value” value (KDM4C (TTP)) was 0.4879 and the “Array Heatmap value” value (ING5) was 0.3678. For the same substance, the “Array Heatmap value” value (TAF3) was 0.2673, the “Array Heatmap value” value (PHF13) was 0.6462 and the “Array Heatmap value” value (KDM5A (3)) was 0.4295. For the same substance, the “Array Heatmap value” value (ING4) was 0.4583.
